The source of these data is article PMC6333442, “Conserved allosteric pathways for activation of TRPV3 revealed through engineering vanilloid-sensitivity” (eLife, 2019).

Assay [1] has as its target T1, rat TRPV2-4M (Rattus norvegicus, UniProt Q9WUD2, F472S/L507M/L510T/Q530E).
T1 construct: expressed in transfected cells; host or cells: Xenopus laevis oocytes
T1 sequence (Q9WUD2 1-761 F472S/L507M/L510T/Q530E): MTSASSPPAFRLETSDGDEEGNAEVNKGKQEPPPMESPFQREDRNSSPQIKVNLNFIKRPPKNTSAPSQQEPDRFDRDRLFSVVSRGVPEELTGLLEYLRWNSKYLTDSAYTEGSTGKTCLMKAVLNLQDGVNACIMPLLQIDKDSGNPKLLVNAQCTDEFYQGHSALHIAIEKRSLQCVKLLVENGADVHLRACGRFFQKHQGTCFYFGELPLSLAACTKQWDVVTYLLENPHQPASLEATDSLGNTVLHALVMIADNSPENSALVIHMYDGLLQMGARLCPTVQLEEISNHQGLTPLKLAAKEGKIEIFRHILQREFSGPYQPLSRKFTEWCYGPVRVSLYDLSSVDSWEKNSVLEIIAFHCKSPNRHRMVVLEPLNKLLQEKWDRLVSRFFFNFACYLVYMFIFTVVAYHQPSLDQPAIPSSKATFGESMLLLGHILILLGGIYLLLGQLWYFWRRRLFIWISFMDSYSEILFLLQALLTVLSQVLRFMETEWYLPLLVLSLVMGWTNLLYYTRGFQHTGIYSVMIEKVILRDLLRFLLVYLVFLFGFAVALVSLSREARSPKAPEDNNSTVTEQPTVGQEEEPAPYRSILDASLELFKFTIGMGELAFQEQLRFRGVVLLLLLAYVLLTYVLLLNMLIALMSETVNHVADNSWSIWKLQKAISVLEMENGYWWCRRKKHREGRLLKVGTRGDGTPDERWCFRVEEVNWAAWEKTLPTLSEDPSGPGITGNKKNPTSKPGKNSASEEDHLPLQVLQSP
The experiment in a line: Two-electrode voltage clamp, TRPV2-4M in oocytes. In kind it is cell-based. Conditions: RTx 100 nM, room temperature, ±60 mV. How it is done:
(§1) All channel constructs were expressed in Xenopus laevis oocytes and studied using the two-electrode voltage clamp technique (TEVC) following 1–4 days of incubation after cRNA injection. The animal care and experimental procedures were performed in accordance with the Guide for the Care and Use of Laboratory Animals and were approved by the Animal Care and Use Committee of the National Institute of Neurological Disorders and Stroke (Animal protocol number 1253–17). Oocytes were removed surgically and incubated with agitation for 1 hr in a solution containing (in mM) 82.5 NaCl, 2.5 KCl, 1 MgCl2, 5 HEPES, pH 7.6 (with NaOH), and collagenase (2 mg/ml; Worthington Biochemical, Lakewood, NJ). Defolliculated oocytes were injected with cRNA for each of the constructs and incubated at 17°C in a solution containing (in mM) 96 NaCl, 2 KCl, 1 MgCl2, 1.8 CaCl2, 5 HEPES, pH 7.6 (with NaOH), and gentamicin (50 μg/ml, GIBCO-BRL, Gaithersburg, MD). Oocyte membrane voltage was controlled using an OC-725C oocyte clamp (Warner Instruments, Hamden, CT). Data were filtered at 1–3 kHz and digitized at 20 kHz using pClamp software (Molecular Devices, Sunnyvale, CA) and a Digidata 1440A digitizer (Axon Instruments). Microelectrode resistances were 0.1–1 MΩ when filled with 3 M KCl. For recording TRP channel currents, the external recording solution contained (in mM) 100 KCl, 10 HEPES, pH 7.6 (with KOH). […]

Assay [2] deals with T2, TRPV3-6M/4PM (Mus musculus, UniProt Q8K424, A560T/F522S/F625L/F656I/F666Y/H523E/L557M/Q580E/V587L/W521Y).
T2 construct: expressed in transfected cells; host or cells: Xenopus laevis oocytes
T2 sequence (Q8K424 1-791 W521Y/F522S/H523E/L557M/A560T/Q580E/V587L/F625L/F656I/F666Y): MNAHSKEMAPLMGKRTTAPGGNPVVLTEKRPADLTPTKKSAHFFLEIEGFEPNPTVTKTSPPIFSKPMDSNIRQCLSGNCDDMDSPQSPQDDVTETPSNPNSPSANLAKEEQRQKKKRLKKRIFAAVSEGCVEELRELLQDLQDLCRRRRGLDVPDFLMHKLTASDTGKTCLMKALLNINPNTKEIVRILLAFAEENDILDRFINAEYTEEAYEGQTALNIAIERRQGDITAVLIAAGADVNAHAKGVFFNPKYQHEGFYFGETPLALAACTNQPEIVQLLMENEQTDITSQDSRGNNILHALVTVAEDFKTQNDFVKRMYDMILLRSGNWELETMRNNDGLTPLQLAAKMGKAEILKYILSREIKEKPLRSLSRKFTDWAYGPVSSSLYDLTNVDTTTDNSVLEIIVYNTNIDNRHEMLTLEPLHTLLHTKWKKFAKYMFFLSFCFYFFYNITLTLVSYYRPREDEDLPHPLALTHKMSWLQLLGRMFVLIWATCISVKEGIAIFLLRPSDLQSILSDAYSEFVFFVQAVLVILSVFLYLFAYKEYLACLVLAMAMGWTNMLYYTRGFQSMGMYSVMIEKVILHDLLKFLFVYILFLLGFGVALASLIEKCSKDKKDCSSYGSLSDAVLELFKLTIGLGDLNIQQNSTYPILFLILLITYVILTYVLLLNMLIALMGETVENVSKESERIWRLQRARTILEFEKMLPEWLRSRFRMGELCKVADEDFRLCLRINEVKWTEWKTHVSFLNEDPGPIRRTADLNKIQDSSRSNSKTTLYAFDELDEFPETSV
The experiment in a line: Two-electrode voltage clamp, TRPV3-6M/4PM in oocytes. Type of assay: cell-based. Conditions: RTx 100 nM, 2-APB 3 mM, +60 mV. How it is done:
as §1

Assay [3] has as its target T1, rat TRPV2-4M. Also noted: method as in Zhang et al., 2016. Conditions: ref Zhang et al., 2016; cited from earlier work.

For the molecule `C=C(C)[C@]12C[C@@H](C)[C@@]34O[C@](Cc5ccccc5)(O[C@@H]1[C@@H]3C=C(COC(=O)Cc1ccc(O)c(OC)c1)C[C@]1(O)C(=O)C(C)=C[C@@H]41)O2` [RTx, resiniferatoxin], in assay [1], the “channel activation (current response)” value was “robust responses”. Further, the “response to RTx compared with maximal response to 2-APB” value in assay [2] is given as “similar”. In addition, the “saturating concentration of RTx” value in assay [3] is listed as 100 nM.
